{
  "source": "patent US20150203561A1",
  "about": "“BETA THYMOSIN FRAGMENTS” (REGENERX BIOPHARMACEUTICALS, INC., priority 2008, published 2015)",
  "key": {"[1]": {"system": "neurite outgrowth", "test": "Promotion of neurite outgrowth (summary table)", "set-up": "key: P = active; U = useful", "conditions": "summary of peptide uses"}, "[2]": {"system": "neuron survival", "test": "Promotion of neuron survival (summary table)", "set-up": "key: P = active; U = useful", "conditions": "summary of peptide uses"}, "[3]": {"system": "L1", "test": "Stimulation of L1 production (summary table)", "set-up": "key: P = active; U = useful", "conditions": "summary of peptide uses"}, "[4]": {"system": "human dermal fibroblasts", "test": "Collagen secretion, colorimetric assay", "format": "cell-based", "set-up": "key to Stimulates collagens / Inhibits collagens: P = active; U = useful", "conditions": "for Stimulates collagens / Inhibits collagens: summary of peptide uses", "experimental": "(§1) Effect of Tb4 and peptides on collagen secretion • Human dermal fibroblasts (Fb) were cultured to 80% confluence • Cells were treated with 1 μg/ml Tb4 or peptides for 24, 48, or 72 hours. Cells were treated once/day. • Culture supernatants (n=3, experiments repeated 5 times) were assayed for collagen secretion using a colorimetric assay that detects collagen types I, II, III, IV and V, and possibly VII"}, "[5]": {"system": "tissue damage caused by UV radiation", "test": "UV radiation tissue damage (summary table)", "set-up": "key: P = active; U = useful", "conditions": "summary of peptide uses"}, "[6]": {"system": "cell migration", "test": "Stimulation of migration (summary table)", "format": "cell-based", "set-up": "key: P = active; U = useful", "conditions": "summary of peptide uses"}, "[7]": {"system": "human dermal fibroblasts", "test": "Elastin secretion, colorimetric assay", "format": "cell-based", "set-up": "key to Stimulates Elastin: P = active; U = useful", "conditions": "for Secretion of elastin: dermal Fb, 1 μg/ml once/day, 24, 48, or 72 hours; for Stimulates Elastin: summary of peptide uses", "experimental": "as §1, with “elastin” for “collagen”, “6” for “5”, “• Data was analyzed using the t-test” for “that detects collagen types I, II, III, IV and V, and possibly VII”"}, "[8]": {"system": "human dermal fibroblasts", "test": "LDH cytotoxicity assay in human dermal fibroblasts exposed to cytotoxic agents", "format": "cell-based", "set-up": "key to Protects from cytotoxicity: P = active; U = useful", "conditions": "for Protects from cytotoxicity: summary of peptide uses", "experimental": "Dose Response Analysis of Peptide 3A • Human dermal fibroblasts (Fb, Cascade Biologics, OR) were cultured to 80% confluence • 2 ml CHX (0.002%) in basal medium ±1 μg/ml Tb4 or 1.0, 0.1, 0.01, or 0.001 μg/ml peptide 3A was added to Fb for 1, 2, 3, or 4 hours • 100 μl culture medium (n=4) was added to 100 μl LDH reagent and incubated at room temperature for 20 minutes • OD500 nm was read and averages ±SEM were calculated • Data was analyzed with probability of p≦0.05"}, "[9]": {"system": "TNF-a-stimulated IL8 secretion", "test": "Suppression of inflammation (summary table; IL-8 secretion)", "format": "cell-based, human", "set-up": "key: P = active; U = useful", "conditions": "summary of peptide uses", "experimental": "Analysis of IL-8 Secretion • Human corneal epithelial cells or dermal Fb were cultured to 80% confluence • Cells were pre-treated with 1 μg/ml Tb4 or peptides for one hour • Cells were stimulated with 10 ng/ml TNF-a in the presence or absence of Tb4 or peptides • Culture medium was analyzed for secreted IL-8 by ELISA (n=3, experiments repeated twice) • Data was analyzed using the t-test"}, "[10]": {"system": "human dermal Fb", "test": "CHX-induced apoptosis (APOPercentage dye) in human dermal Fb", "format": "cell-based", "set-up": "key to Inhibits apoptosis: P = active; U = useful", "conditions": "summary of peptide uses", "experimental": "Effect of Tb4 and Peptide 3A on CHX-induced apoptosis • Human dermal Fb were cultured to 80% confluence • Fb were treated with 0.002% CHX+1 μg/ml Tb4 or peptide 3A, 4A or 6A for 1.5 hours • APOPercentage “dye” was added to the Fb cultures at a 1:50 dilution for an additional 30 minutes • Excess dye was washed from the cells, and digital images were captured. Cells dyed red were apoptotic • Adobe Photoshop was used to calculate the number of red pixels in six digitized images for each treatment • Statistical analysis was done using the t-test"}},
  "data": [
    {"substance": "Ac-Glu-Lys-Asn-Pro-Leu-Pro-Ser-Lys-Glu-Thr-OH (Ac-EKNPLPSKET-OH) [Peptide 5B]", "values": [
      {"measurement": "Promotes neurite outgrowth", "setting": "[1]", "result": "U"},
      {"measurement": "Promotes neuron survival", "setting": "[2]", "result": "U"},
      {"measurement": "Stimulates L1 production", "setting": "[3]", "result": "U"},
      {"measurement": "Stimulation of secretion of collagens", "setting": "[4]; human dermal fibroblasts, 1 μg/ml once/day, after 3 days of treatment", "result": "stimulates"},
      {"measurement": "Stimulates collagens", "setting": "[4]", "result": "P"},
      {"measurement": "Inhibits tissue damage caused by UV radiation", "setting": "[5]", "result": "U"},
      {"measurement": "Protects tissue from UV radiation damage", "setting": "[5]", "result": "U"}
    ]},
    {"substance": "Ac-Leu-Lys-Lys-Thr-Glu-Thr-Gln-OH (Ac-LKKTETQ-OH) [Peptide 4B]", "values": [
      {"measurement": "Stimulates Migration", "setting": "[6]", "result": "P"},
      {"measurement": "Promotes neurite outgrowth", "setting": "[1]", "result": "U"},
      {"measurement": "Secretion of elastin", "setting": "[7]", "result": "stimulate"},
      {"measurement": "Stimulates Elastin", "setting": "[7]", "result": "P"},
      {"measurement": "Promotes neuron survival", "setting": "[2]", "result": "U"},
      {"measurement": "Stimulates L1 production", "setting": "[3]", "result": "U"},
      {"measurement": "Inhibits tissue damage caused by UV radiation", "setting": "[5]", "result": "U"},
      {"measurement": "Protects tissue from UV radiation damage", "setting": "[5]", "result": "U"}
    ]},
    {"substance": "Ac-Leu-Lys-Lys-Thr-Glu-Thr-OH (Ac-LKKTET-OH) [Peptide 1B]", "values": [
      {"measurement": "Promotes neurite outgrowth", "setting": "[1]", "result": "U"},
      {"measurement": "Promotes neuron survival", "setting": "[2]", "result": "U"},
      {"measurement": "Stimulates L1 production", "setting": "[3]", "result": "U"},
      {"measurement": "Inhibits collagens", "setting": "[4]", "result": "P"},
      {"measurement": "Inhibits tissue damage caused by UV radiation", "setting": "[5]", "result": "U"},
      {"measurement": "Protects tissue from UV radiation damage", "setting": "[5]", "result": "U"}
    ]},
    {"substance": "Ac-Met-Ala-Glu-Ile-Glu-Lys-Phe-Asp-Lys-Ser-OH (Ac-MAEIEKFDKS-OH) [Peptide 7B]", "values": [
      {"measurement": "Promotes neurite outgrowth", "setting": "[1]", "result": "U"},
      {"measurement": "Secretion of elastin", "setting": "[7]", "result": "stimulate"},
      {"measurement": "Stimulates Elastin", "setting": "[7]", "result": "U"},
      {"measurement": "Promotes neuron survival", "setting": "[2]", "result": "U"},
      {"measurement": "Stimulates L1 production", "setting": "[3]", "result": "U"},
      {"measurement": "Inhibits collagens", "setting": "[4]", "result": "U"},
      {"measurement": "Inhibits tissue damage caused by UV radiation", "setting": "[5]", "result": "U"},
      {"measurement": "Protects tissue from UV radiation damage", "setting": "[5]", "result": "U"}
    ]},
    {"substance": "Ac-SDKPDMAEIEKFDKS-OH [Peptide 3B]", "values": [
      {"measurement": "Promotes neurite outgrowth", "setting": "[1]", "result": "U"},
      {"measurement": "Protection of Fb against the cytotoxic effects of CHX (LDH)", "setting": "[8]; 1 μg/ml, 0.002% CHX, 2 hour exposure", "result": "protect"},
      {"measurement": "Protects from cytotoxicity", "setting": "[8]", "result": "P"},
      {"measurement": "Promotes neuron survival", "setting": "[2]", "result": "U"},
      {"measurement": "Stimulates L1 production", "setting": "[3]", "result": "U"},
      {"measurement": "Inhibits collagens", "setting": "[4]", "result": "P"},
      {"measurement": "Inhibits tissue damage caused by UV radiation", "setting": "[5]", "result": "U"},
      {"measurement": "Protects tissue from UV radiation damage", "setting": "[5]", "result": "U"}
    ]},
    {"substance": "Ac-SDKPDMAEIEKFDKSKLKKTET-OH [Fragment Ab]", "values": [
      {"measurement": "Stimulates Migration", "setting": "[6]", "result": "U"},
      {"measurement": "Promotes neurite outgrowth", "setting": "[1]", "result": "U"},
      {"measurement": "Stimulates Elastin", "setting": "[7]", "result": "U"},
      {"measurement": "Suppresses inflammation", "setting": "[9]", "result": "U"},
      {"measurement": "Protects from cytotoxicity", "setting": "[8]", "result": "U"},
      {"measurement": "Inhibits apoptosis", "setting": "[10]", "result": "U"},
      {"measurement": "Promotes neuron survival", "setting": "[2]", "result": "U"},
      {"measurement": "Stimulates L1 production", "setting": "[3]", "result": "U"},
      {"measurement": "Inhibits collagens", "setting": "[4]", "result": "U"},
      {"measurement": "Stimulates collagens", "setting": "[4]", "result": "U"},
      {"measurement": "Inhibits tissue damage caused by UV radiation", "setting": "[5]", "result": "U"},
      {"measurement": "Protects tissue from UV radiation damage", "setting": "[5]", "result": "U"}
    ]},
    {"substance": "Ac-SDKPDMAEIEKFDKSKLKKTETQ-OH [Fragment Bb]", "values": [
      {"measurement": "Stimulates Migration", "setting": "[6]", "result": "U"},
      {"measurement": "Promotes neurite outgrowth", "setting": "[1]", "result": "U"},
      {"measurement": "Stimulates Elastin", "setting": "[7]", "result": "U"},
      {"measurement": "Suppresses inflammation", "setting": "[9]", "result": "U"},
      {"measurement": "Protects from cytotoxicity", "setting": "[8]", "result": "U"},
      {"measurement": "Inhibits apoptosis", "setting": "[10]", "result": "U"},
      {"measurement": "Promotes neuron survival", "setting": "[2]", "result": "U"},
      {"measurement": "Stimulates L1 production", "setting": "[3]", "result": "U"},
      {"measurement": "Inhibits collagens", "setting": "[4]", "result": "U"},
      {"measurement": "Stimulates collagens", "setting": "[4]", "result": "U"},
      {"measurement": "Inhibits tissue damage caused by UV radiation", "setting": "[5]", "result": "U"},
      {"measurement": "Protects tissue from UV radiation damage", "setting": "[5]", "result": "U"}
    ]},
    {"substance": "H-Glu-Lys-Asn-Pro-Leu-Pro-Ser-Lys-Glu-Thr-OH (H-EKNPLPSKET-OH) [Peptide 5A]", "values": [
      {"measurement": "Stimulates Migration", "setting": "[6]", "result": "P"},
      {"measurement": "Promotes neurite outgrowth", "setting": "[1]", "result": "U"},
      {"measurement": "Promotes neuron survival", "setting": "[2]", "result": "U"},
      {"measurement": "Stimulates L1 production", "setting": "[3]", "result": "U"},
      {"measurement": "Inhibits tissue damage caused by UV radiation", "setting": "[5]", "result": "U"},
      {"measurement": "Protects tissue from UV radiation damage", "setting": "[5]", "result": "U"}
    ]},
    {"substance": "H-Ile-Glu-Gln-Glu-Lys-Gln-Ala-Gly-Glu-Ser-OH (H-IEQEKQAGES-OH) [Peptide 6A]", "values": [
      {"measurement": "Promotes neurite outgrowth", "setting": "[1]", "result": "U"},
      {"measurement": "Promotes neuron survival", "setting": "[2]", "result": "U"},
      {"measurement": "Stimulates L1 production", "setting": "[3]", "result": "U"},
      {"measurement": "Inhibits collagens", "setting": "[4]", "result": "P"},
      {"measurement": "Inhibits tissue damage caused by UV radiation", "setting": "[5]", "result": "U"},
      {"measurement": "Protects tissue from UV radiation damage", "setting": "[5]", "result": "U"}
    ]},
    {"substance": "H-Met-Ala-Glu-Ile-Glu-Lys-Phe-Asp-Lys-Ser-OH (H-MAEIEKFDKS-OH) [Peptide 7A]", "values": [
      {"measurement": "Promotes neurite outgrowth", "setting": "[1]", "result": "U"},
      {"measurement": "Promotes neuron survival", "setting": "[2]", "result": "U"},
      {"measurement": "Stimulates L1 production", "setting": "[3]", "result": "U"},
      {"measurement": "Inhibits collagens", "setting": "[4]", "result": "P"},
      {"measurement": "Inhibits tissue damage caused by UV radiation", "setting": "[5]", "result": "U"},
      {"measurement": "Protects tissue from UV radiation damage", "setting": "[5]", "result": "U"}
    ]}
  ]
}
